Experimental data: PMC12647645, “Structural interactions of BWC0977 with Klebsiella pneumoniae topoisomerase IV and biochemical basis of its broad-spectrum activity” (Communications Biology, 2025)
Converted amounts (≈) assume the structure as drawn. Where two headings read alike, the source gives them in different places.

Assays:
E. coli topoisomerase IV = target: T1, E. coli topoisomerase IV (Escherichia coli, UniProt P0AFI2+P20083); assay: biochemical; assay type: biochemical; details: read-out: IC50 E. coli topo IV decatenation
T1 construct: purchased Inspiralis

E. coli gyrase = target: T2, E. coli gyrase (Escherichia coli, UniProt P0AES4+P0AES6); assay: biochemical; assay type: biochemical
T2 construct: purchased Inspiralis

Human topo IIα = Human topo IIα (Homo sapiens, UniProt P11388); assay: Human topo IIα decatenation assay; assay type: biochemical
Experimental: (§1) Human topo IIα (0.9 nM) and topo IIß (2.2 nM) decatenation assays were performed following the same protocol used for bacterial topoisomerase IV decatenation assays. The assay buffer was made of 50 mM Tris. HCl (pH 7.5), 125 mM NaCl, 10 mM MgCl2, 5 mM DTT, and 100 μg/mL albumin.

A. baumannii ATCC 19606 = assay: MIC broth microdilution; assay type: cell-based; details: Acinetobacter baumannii
[1] = tested on: A. baumannii ATCC 19606 resistant mutant colonies (mutant 1-5); assay: microbe, parasite or virus in culture; assay type: cell-based; details: Acinetobacter baumannii
[2] = tested on: E. coli MG1655 GyrA D82N, ParC D79N; assay: microbe, parasite or virus in culture; assay type: cell-based; details: Escherichia coli
[3] = tested on: E. coli MG1655 GyrA R121K, ParC WT; assay: microbe, parasite or virus in culture; assay type: cell-based; details: Escherichia coli
[4] = tested on: E. coli MG1655 GyrA WT, ParC R119K; assay: microbe, parasite or virus in culture; assay type: cell-based; details: Escherichia coli
[5] = tested on: E. coli MG1655 GyrA M120A, ParC M118A; assay: microbe, parasite or virus in culture; assay type: cell-based; details: Escherichia coli
[6] = tested on: E. coli MG1655 (GyrA WT, ParC WT); assay: microbe, parasite or virus in culture; assay type: cell-based; details: Escherichia coli
[7] = tested on: E. coli MG1655 GyrA D82N, ParC WT; assay: microbe, parasite or virus in culture; assay type: cell-based; details: Escherichia coli
[8] = tested on: E. coli MG1655 GyrA WT, ParC D79N; assay: microbe, parasite or virus in culture; assay type: cell-based; details: Escherichia coli
Human topo IIß = Human topo IIß (Homo sapiens, UniProt Q02880); assay: Human topo IIß decatenation assay; assay type: biochemical
Experimental: as §1

[9] = ATCC19606, read-out: MIC 90 in (μg/mL), resistant mutant colony 1
[10] = ATCC19606, read-out: MIC 90 in (μg/mL), resistant mutant colony 2
[11] = ATCC19606, read-out: MIC 90 in (μg/mL), resistant mutant colony 3
[12] = ATCC19606, read-out: MIC 90 in (μg/mL), resistant mutant colony 4
[13] = ATCC19606, read-out: MIC 90 in (μg/mL), resistant mutant colony 5
[14] = ATCC19606, WT, Supplementary Table 4, read-out: MIC 90 in (μg/mL), A. baumannii ATCC 19606 (WT)

C[C@@H]1CN2c3c(cc4c(N5C(=O)OC[C@@H]5C)noc4c3F)CC3(C(=O)NC(=O)NC3=O)[C@H]2[C@H](C)O1 [Zoliflodacin]
IC50 (E. coli topoisomerase IV): 27 ± 12 µM | IC50 (E. coli gyrase): 0.8 µM | IC50 (Human topo IIα): > 200 µM

CC[C@H]1OC(=O)[C@@](C)(F)C(=O)[C@H](C)[C@@H](O[C@@H]2O[C@H](C)C[C@H](N(C)C)[C@H]2O)[C@](C)(OC)C[C@@H](C)C(=O)[C@H](C)[C@H]2N(CCCCn3cc(-c4cccc(N)c4)nn3)C(=O)O[C@]12C [Solithromycin]
MIC90 (A. baumannii ATCC 19606; ATCC19606, read-out: MIC 90 in (μg/mL), A. baumannii ATCC 19606 (WT)): 2.5 µg/mL (≈ 2.96 µM) | MIC90 [1, 9]: 5 µg/mL (≈ 5.92 µM) | MIC90 [1, 10]: 2.5 µg/mL (≈ 2.96 µM) | MIC90 [1, 11]: 2.5 µg/mL (≈ 2.96 µM) | MIC90 [1, 12]: 5 µg/mL (≈ 5.92 µM) | MIC90 [1, 13]: 2.5 µg/mL (≈ 2.96 µM)

CN(C)[C@@H]1C(O)=C(C(N)=O)C(=O)[C@@]2(O)C(O)=C3C(=O)c4c(O)cccc4[C@@](C)(O)[C@H]3C[C@@H]12 [Tetracycline]
MIC90 (A. baumannii ATCC 19606; [14]): 0.3 µg/mL (≈ 0.675 µM) | MIC90 [1, 9]: 0.6 µg/mL (≈ 1.35 µM) | MIC90 [1, 10]: 0.6 µg/mL (≈ 1.35 µM) | MIC90 [1, 11]: 0.6 µg/mL (≈ 1.35 µM) | MIC90 [1, 12]: 0.6 µg/mL (≈ 1.35 µM) | MIC90 [1, 13]: 0.6 µg/mL (≈ 1.35 µM)

CC1(C)S[C@@H]2[C@H](NC(=O)[C@H](N)c3ccccc3)C(=O)N2[C@H]1C(=O)O [Ampicillin]
MIC [2]: 3.3 µg/mL (≈ 9.44 µM) | MIC [3]: 4.2 µg/mL (≈ 12 µM) | MIC [4]: 5 µg/mL (≈ 14.3 µM) | MIC [5]: 4.2 µg/mL (≈ 12 µM) | MIC [6]: 5 µg/mL (≈ 14.3 µM) | MIC [7]: 5 µg/mL (≈ 14.3 µM) | MIC [8]: 2.5 µg/mL (≈ 7.15 µM)

CO[C@H]1/C=C/O[C@@]2(C)Oc3c(C)c(O)c4c(O)c(c(/C=N/N5CCN(C)CC5)c(O)c4c3C2=O)NC(=O)/C(C)=C\C=C\[C@H](C)[C@H](O)[C@@H](C)[C@@H](O)[C@@H](C)[C@H](OC(C)=O)[C@@H]1C [Rifampicin]
MIC90 (A. baumannii ATCC 19606; [14]): 2.5 µg/mL (≈ 3.04 µM) | MIC90 [1, 9]: 1.25 µg/mL (≈ 1.52 µM)

COc1cc([C@@H]2c3cc4c(cc3[C@@H](O[C@@H]3O[C@@H]5CO[C@@H](c6cccs6)O[C@H]5[C@H](O)[C@H]3O)[C@H]3COC(=O)[C@H]23)OCO4)cc(OC)c1O [Teniposide]
IC50 (Human topo IIß): 92 µM | IC50 (Human topo IIα; read-out: IC50 Human topo IIα decatenation): 18 ± 5 µM

C[C@H]1COc2c(N3CCN(C)CC3)c(F)cc3c(=O)c(C(=O)O)cn1c23 [Levofloxacin]
IC50 (E. coli topoisomerase IV): 13 µM | MIC [2]: 0.25 µg/mL (≈ 0.692 µM) | MIC [3]: 0.08 µg/mL (≈ 0.221 µM) | IC50 (E. coli gyrase): 0.39 µM | MIC [4]: 0.04 µg/mL (≈ 0.111 µM) | MIC [5]: 0.02 µg/mL (≈ 0.0553 µM) | MIC [6]: 0.03 µg/mL (≈ 0.083 µM) | MIC [7]: 0.13 µg/mL (≈ 0.36 µM) | MIC [8]: 0.02 µg/mL (≈ 0.0553 µM)

CO[C@@H]1[C@@H](OC(N)=O)[C@@H](O)[C@H](Oc2ccc3c(O)c(NC(=O)c4ccc(O)c(CC=C(C)C)c4)c(=O)oc3c2C)OC1(C)C [Novobiocin]
MIC90 (A. baumannii ATCC 19606; [14]): 10 µg/mL (≈ 16.3 µM)

C[C@@H](O)[C@H]1C(=O)N2C(C(=O)O)=C(S[C@@H]3CN[C@H](C(=O)N(C)C)C3)[C@H](C)[C@H]12 [Meropenem]
MIC90 (A. baumannii ATCC 19606; [14]): 0.3 µg/mL (≈ 0.782 µM) | MIC90 [1, 11]: 0.15 µg/mL (≈ 0.391 µM) | MIC90 [1, 13]: 0.6 µg/mL (≈ 1.56 µM)
